# Reference: patent US8933224B2, “Triazine derivatives” (Pfizer Inc., priority 2013, dated 2015)
# Target: rat PDE10 enzyme (Rattus norvegicus (Rat), UniProt Q9QYJ6)
# Test: PDE10 scintillation proximity assay (SPA), inhibition of rat PDE10 enzyme activity
# Assay type: biochemical
# Details: geometric mean of 2-4 determinations unless otherwise indicated (b: ≧5 determinations; c: single determination)
# Procedure: PDE10 activity was measured using a scintillation assay (SPA-based method) similar to that previously described by Seeger, T. F. et al., Brain Research 985 (2003) 113-126. The compounds' relative activity as PDE10 inhibitors was investigated by assaying a fixed amount of enzyme in the presence of the test compound and low substrate concentration (cAMP) such that an IC50 could be determined. […] The assay is performed in a 384-well format with 50 μL assay buffer (50 mM TRIS pH 7.5; 1.3 mM MgCl2; 0.01% Brij) containing enough PDE10 to convert ˜20% of 20 nM ^3H-cAMP, and a range of inhibitors. Reactions are incubated for 30 minutes at 25° C. The addition of 20 μL of 8 mg/ml yttrium silicate SPA beads (PerkinElmer) stops the reaction. The plates are sealed (TopSeal, PerkinElmer) and the beads are allowed to settle for 8 hrs, after which they are read on the Trilux Microbeta overnight. ^1Rat enzyme preparation:^2Human enzyme preparation:
# The recombinant Bacmid was isolated and used to transfect sf9 insect cells to generate a viral stock. To generate cell paste for purification, sf21 cells were infected with the virus stock and cells were harvested 72 hours after infection as described in Seeger, T. F. et al., Brain Research 985 (2003) 113-126. Insect cell paste was lysed and after centrifugation, the supernatant was chromatographed on Ni-NTA agarose (Qiagen) followed by Mono Q (GE Healthcare Life Sciences) as described in Seeger, T. F. et al., Brain Research 985 (2003) 113-126.
# Sequence of rat PDE10 enzyme (Q9QYJ6 24-794): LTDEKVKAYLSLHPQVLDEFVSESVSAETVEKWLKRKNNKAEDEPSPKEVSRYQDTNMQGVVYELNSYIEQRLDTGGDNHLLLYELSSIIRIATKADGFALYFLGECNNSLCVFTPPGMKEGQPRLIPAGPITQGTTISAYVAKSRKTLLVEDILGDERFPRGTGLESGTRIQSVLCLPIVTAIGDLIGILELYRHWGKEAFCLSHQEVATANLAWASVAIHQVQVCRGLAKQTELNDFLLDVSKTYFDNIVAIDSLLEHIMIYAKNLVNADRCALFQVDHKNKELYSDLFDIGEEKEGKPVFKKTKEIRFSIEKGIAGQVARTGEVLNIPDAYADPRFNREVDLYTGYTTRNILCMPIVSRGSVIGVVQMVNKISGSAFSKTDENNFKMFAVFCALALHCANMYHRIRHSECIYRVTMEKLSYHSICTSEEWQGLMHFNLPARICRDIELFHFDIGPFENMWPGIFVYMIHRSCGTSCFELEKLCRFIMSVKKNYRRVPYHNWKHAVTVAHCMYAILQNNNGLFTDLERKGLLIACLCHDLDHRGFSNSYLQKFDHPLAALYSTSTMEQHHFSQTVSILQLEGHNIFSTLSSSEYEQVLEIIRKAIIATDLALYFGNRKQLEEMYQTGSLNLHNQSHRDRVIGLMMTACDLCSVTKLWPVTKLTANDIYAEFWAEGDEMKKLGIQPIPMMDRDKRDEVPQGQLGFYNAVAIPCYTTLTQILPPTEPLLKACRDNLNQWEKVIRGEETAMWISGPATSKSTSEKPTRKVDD
row,Structure (SMILES),IC50
1,"Cc1nc(C2CC2)nc2c1CN(c1ncnn3c(C)nc([C@@H]4CCOC4)c13)CC2 [Example 41, 2-cyclopropyl-4-methyl-6-{7-methyl-5-[(3S)-tetrahydrofuran-3-yl]imidazo[5,1-f][1,2,4]triazin-4-yl}-5,6,7,8-tetrahydropyrido[4,3-d]pyrimidine]",< 0.175 nM
2,"Cc1nc(CC(C)C)c2c(N3CCc4nc(C5CC5)ncc4C3)ncnn12 [Example 55, 2-cyclopropyl-6-(5-isobutyl-7-methylimidazo[5,1-f][1,2,4]triazin-4-yl)-5,6,7,8-tetrahydropyrido[4,3-d]pyrimidine]",2.19 nM
3,"Cc1nc([C@@H]2CCOC2)c2c(N3CCc4nc(C5CC5)nc(OC(F)F)c4C3)ncnn12 [Example 141, 2-cyclopropyl-4-(difluoromethoxy)-6-{7-methyl-5-[(3S)-tetrahydrofuran-3-yl]imidazo[5,1-f][1,2,4]triazin-4-yl}-5,6,7,8-tetrahydropyrido[4,3-d]pyrimidine]",0.142 nM
4,"COc1nccc2c1CN(c1ncnn3c(C)nc(-c4ccccc4F)c13)CC2 [Example 68, 2-[5-(2-fluorophenyl)-7-methylimidazo[5,1-f][1,2,4]triazin-4-yl]-8-methoxy-1,2,3,4-tetrahydro-2,7-naphthyridine]",0.895 nM
5,CCc1nn(C)c2c1CN(c1ncnn3c(C)nc(-c4ccccc4F)c13)CC2 [Example 117],0.336 nM
6,"Cc1nc(CC(C)C)c2c(N3CCc4noc(C5CC5)c4C3)ncnn12 [Example 94, 4-(3-cyclopropyl-6,7-dihydro[1,2]oxazolo[4,3-c]pyridin-5(4H)-yl)-7-methyl-5-(2-methylpropyl)imidazo[5,1-f][1,2,4]triazine]",2.89 nM
7,"CCOc1nc(C2CC2)nc2c1CN(c1ncnn3c(C)nc(-c4ccccc4F)c13)CC2 [Example 147, 2-cyclopropyl-4-ethoxy-6-[5-(2-fluorophenyl)-7-methylimidazo[5,1-f][1,2,4]triazin-4-yl]-5,6,7,8-tetrahydropyrido[4,3-d]pyrimidine]",9.98 nM
8,"Cc1nc(-c2ccccc2F)c2c(N3CCc4ncnc(O)c4C3)ncnn12 [Example 172, 6-[5-(2-fluorophenyl)-7-methylimidazo[5,1-f][1,2,4]triazin-4-yl]-5,6,7,8-tetrahydropyrido[4,3-d]pyrimidin-4-ol]",11.3 nM
9,"COc1cc2c(cc1OC)CN(c1ncnn3c(C)nc(CC(C)C)c13)CC2 [Example 64, 2-(5-isobutyl-7-methylimidazo[5,1-f][1,2,4]triazin-4-yl)-6,7-dimethoxy-1,2,3,4-tetrahydroisoquinoline]",1.18 nM
10,"Cc1nn(C)c2c1CN(c1ncnn3c(C)nc([C@H]4CCOC4)c13)CC2 [Example 84, 4-(1,3-dimethyl-1,4,6,7-tetrahydro-5H-pyrazolo[4,3-c]pyridin-5-yl)-7-methyl-5-[(3R)-tetrahydrofuran-3-yl]imidazo[5,1-f][1,2,4]triazine]",8.1 nM
11,"Cc1nc(CC(C)C)c2c(N3CCc4nc(C5CC5)oc4C3)ncnn12 [Example 54, 4-(2-cyclopropyl-6,7-dihydro[1,3]oxazolo[5,4-c]pyridin-5(4H)-yl)-5-isobutyl-7-methylimidazo[5,1-f][1,2,4]triazine]",4.52 nM
12,"Cc1nc(C2CCOCC2)c2c(N3CCc4nn(C)c(C(C)C)c4C3)ncnn12 [Example 104, 7-methyl-4[2-methyl-3-(propan-2-yl)-2,4,6,7-tetrahydro-5H-pyrazolo[4,3-c]pyridin-5-yl]-5-(tetrahydro-2H-pyran-4-yl)imidazo[5,1-f][1,2,4]triazine]",1.08 nM
13,"COc1cc2c(cc1OC)CN(c1ncnn3c(C)nc([C@@H]4CCOC4)c13)CC2 [Example 15, 6,7-dimethoxy-2-{7-methyl-5-[(3S)-tetrahydrofuran-3-yl]imidazo[5,1-f][1,2,4]triazin-4-yl}-1,2,3,4-tetrahydroisoquinoline]",0.716 nM
